{
  "source": "patent US20250375417A1",
  "about": "“OREXIN RECEPTOR 2 (OX2R) AGONIST FOR USE IN NARCOLEPSY TYPE 1 (NT1)” (TAKEDA PHARMACEUTICAL COMPANY LIMITED, priority 2024, published 2025)",
  "key": {"[1]": {"system": "participants with NT1", "experiment": "Safety and tolerability (TEAEs), Phase 2 NT1 trial", "assay_type": "in vivo, human", "source_text": "Standard safety endpoints (e,g., treatment […] adverse events (TEAEs), physical examination findings, vital signs, 12-lead ECG measures, clinical laboratory results) for early clinical investigation were included. Further, because cardiovascular effects have been noted in nonclinical models with Compound A and OX2R agonists in general, and these effects are thought to be on-target effects, close monitoring of cardiovascular parameters, including time-matched BP measurements before and after dosing to detect any changes and potential tolerance in BP after the administration of repeat doses to participants with NT1 were included. Ambulatory blood pressure monitoring (ABPM) was also obtained to assess BP in the outpatient setting in a rigorous manner.\nIn addition, because liver function test (LFT) elevation cases have been observed in another OX2R agonist with structural similarity, LFTs (ALT, AST, GGT, and total bilirubin) were closely monitored.\nThe following doses were studied: • Compound A Dose Regimen 1:0.5 mg twice daily approximately 3 hours apart. • Compound A Dose Regimen 2:2 mg twice daily approximately 3 hours apart. • Compound A Dose Regimen 3:2 mg followed by 5 mg approximately 3 hours apart. • Compound A Dose Regimen 4:7 mg once daily (QD). • Other products required for the study: Matching placebo.\nEndpoints included change from baseline to Week 8 in mean sleep onset latency on the Maintenance of Wakefulness Test (SOL-MWT; primary endpoint), ESS total score, weekly cataplexy rate (WCR), and occurrence of treatment-emergent adverse events (TEAEs)."}, "[2]": {"system": "participants with NT1", "experiment": "Efficacy (SOL-MWT, ESS, WCR), LTE study interim analysis, NT1 participants", "assay_type": "in vivo, human", "settings": "all Compound A doses, up to 6 months (FIG. 31)", "experimental": "An nPSG and MWT were conducted on Day 181 and 182, respectively. Cognitive testing were conducted at Week 26 (6 months). ESS and NSS-CT were collected monthly starting at Week 4 and then approximately every 3 months after Week 12. There were additional ESS measurements at Week 2 and in the first week after drug discontinuation. PGI-I and CGI-I were collected approximately every 3 months starting at Week 12. Other patient-reported outcome measures were administered approximately every 6 months up until Year 1.\nParticipants with NT1 also completed the Cataplexy e-diary daily over 2-week periods to capture the weekly cataplexy rate before the next visit in-clinic. The Cataplexy e-diary was completed at approximately 3-month intervals during Year 1 and at 6-month intervals during Year 2.\nParticipants completing either Example 1 or Example 2 with ≤3 months between parent study-end and LTE screening could enroll. Primary endpoint is the occurrence of treatment-emergent adverse events (TEAEs); secondary endpoints are change from baseline (parent study) in sleep onset latency on the Maintenance of Wakefulness Test (SOL-MWT), Epworth Sleepiness Scale (ESS) score, and weekly cataplexy rate (WCR). Participants with NT1 receive oral Compound A 0.5 mg twice 3 hours apart, 2 mg twice 3 hours apart, 2 mg then 5 mg 3 hours apart, or 7 mg once daily. […]"}, "[3]": {"settings": "Compound A-treated participants"}},
  "data": [
    {"compound": "CCS(=O)(=O)N[C@@H]1[C@H](Cc2cccc(-c3cc(F)cc(F)c3)c2F)N(C(=O)C(C)(C)O)CC1(F)F", "note": "[Compound A, N-{(2S,3R)-4,4-difluoro-1-(2-hydroxy-2-methylpropanoyl)-2-[(2,3′,5′-trifluoro[1,1′-biphenyl]-3-yl)methyl]pyrrolidin-3-yl}ethanesulfonamide]", "values": [
      {"measurement": "Adverse events of mild to moderate insomnia, participants", "setting": "[1]; [3]", "value": 48, "unit": "%"},
      {"measurement": "Time to resolution of most insomnia adverse events", "setting": "[1]; [3]", "value": "≤ 1", "unit": "week"},
      {"measurement": "Most common TEAEs", "setting": "[1]; Phase 2", "value": "urinary urgency/frequency and insomnia"},
      {"measurement": "Hepatotoxicity or visual disturbances", "setting": "[1]; Phase 2, 8 weeks", "value": "No cases of hepatotoxicity or visual disturbances were reported"},
      {"measurement": "Tolerability", "setting": "[1]; Phase 2, 8 weeks", "value": "generally well tolerated"},
      {"measurement": "Occurrence of TEAEs", "setting": "[1]; all Compound A doses (70/90 patients), 8 weeks", "value": 77.8, "unit": "%"},
      {"measurement": "Treatment-related serious TEAEs or discontinuations due to TEAEs", "setting": "[1]; during the study", "value": "No treatment-related serious TEAEs or discontinuations due to TEAEs occurred"},
      {"measurement": "Efficacy on SOL-MWT, ESS and WCR over time", "setting": "[2]", "value": "maintenance of efficacy"}
    ]}
  ]
}
